ChEMBL document CHEMBL1201862, “PubChem BioAssay data set” (2004)
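In this assay, cells in 96-well plates receive the compound at five concentrations for 48 hours. Endpoints are linearly interpolated between the surrounding concentrations. The concentration for 50% growth inhibition is given as GI50.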 Active and inactive are the calls of the source. No stated cut-off is given here; in the data, active = GI50 up to about 1.1 µM and inactive = higher.

Tests used:
Assay in all cases: NCI tumour cell line growth inhibition, 48 h
U-251 = tested on: U-251
NCI-H226 = tested on: NCI-H226
UACC-257 = tested on: UACC-257
OVCAR-8 = tested on: OVCAR-8
KM12 = tested on: KM12
HOP-62 = tested on: HOP-62
K562 = tested on: K562
MCF7 = tested on: MCF7
MDA-N = tested on: MDA-N
SF-295 = tested on: SF-295
A498 = tested on: A498
MOLT-4 = tested on: MOLT-4
HCT-15 = tested on: HCT-15
RXF 393 = tested on: RXF 393
CCRF-CEM = tested on: CCRF-CEM
SR = tested on: SR
HOP-92 = tested on: HOP-92
Malme-3M = tested on: Malme-3M
LOX IMVI = tested on: LOX IMVI
MDA-MB-435 = tested on: MDA-MB-435
Hs-578T = tested on: Hs-578T
OVCAR-3 = tested on: OVCAR-3
NCI/ADR-RES = tested on: NCI/ADR-RES
UACC-62 = tested on: UACC-62
SN12C = tested on: SN12C
HT-29 = tested on: HT-29
SK-MEL-2 = tested on: SK-MEL-2
SNB-75 = tested on: SNB-75
SK-MEL-28 = tested on: SK-MEL-28
TK-10 = tested on: TK-10
NCI-H460 = tested on: NCI-H460
SK-MEL-5 = tested on: SK-MEL-5
SNB-19 = tested on: SNB-19
SW-620 = tested on: SW-620
COLO 205 = tested on: COLO 205
M14 = tested on: M14
UO-31 = tested on: UO-31
SK-OV-3 = tested on: SK-OV-3
RPMI-8226 = tested on: RPMI-8226
T47D = tested on: T47D
NCI-H23 = tested on: NCI-H23
IGROV-1 = tested on: IGROV-1
BT-549 = tested on: BT-549
PC-3 = tested on: PC-3
OVCAR-4 = tested on: OVCAR-4
DU-145 = tested on: DU-145
OVCAR-5 = tested on: OVCAR-5
CAKI-1 = tested on: CAKI-1
HCT-116 = tested on: HCT-116
HL-60 = tested on: HL-60
A549 = tested on: A549
786-0 = tested on: 786-0
EKVX = tested on: EKVX
MDA-MB-231 = tested on: MDA-MB-231
HCC 2998 = tested on: HCC 2998

Nc1nc(O)c2ncn([C@H]3CC[C@@H](CO)O3)c2n1
GI50 (U-251): > 100 µM (inactive) | GI50 (NCI-H226): > 100 µM (inactive) | GI50 (UACC-257): > 100 µM (inactive) | GI50 (OVCAR-8): > 100 µM (inactive) | GI50 (KM12): > 100 µM (inactive) | GI50 (HOP-62): > 100 µM (inactive) | GI50 (K562): > 100 µM (inactive) | GI50 (MCF7): > 100 µM (inactive) | GI50 (MDA-N): > 100 µM (inactive) | GI50 (SF-295): > 100 µM (inactive) | GI50 (A498): > 100 µM (inactive) | GI50 (MOLT-4): > 100 µM (inactive) | GI50 (HCT-15): > 100 µM | GI50 (RXF 393): > 100 µM (inactive) | GI50 (CCRF-CEM): > 100 µM (inactive) | GI50 (SR): > 100 µM (inactive) | GI50 (HOP-92): > 100 µM (inactive) | GI50 (Malme-3M): > 100 µM (inactive) | GI50 (LOX IMVI): > 100 µM (inactive) | GI50 (MDA-MB-435): > 100 µM (inactive) | GI50 (Hs-578T): > 100 µM (inactive) | GI50 (OVCAR-3): > 100 µM (inactive) | GI50 (NCI/ADR-RES): > 100 µM (inactive) | GI50 (UACC-62): > 100 µM (inactive) | GI50 (SN12C): > 100 µM (inactive) | GI50 (HT-29): > 100 µM (inactive) | GI50 (SK-MEL-2): > 100 µM (inactive) | GI50 (SNB-75): > 100 µM (inactive) | GI50 (SK-MEL-28): > 100 µM (inactive) | GI50 (TK-10): > 100 µM (inactive) | GI50 (NCI-H460): > 100 µM (inactive) | GI50 (SK-MEL-5): > 100 µM (inactive) | GI50 (SNB-19): > 100 µM (inactive) | GI50 (SW-620): > 100 µM (inactive) | GI50 (COLO 205): > 100 µM (inactive) | GI50 (M14): > 100 µM (inactive) | GI50 (UO-31): > 100 µM (inactive) | GI50 (SK-OV-3): > 100 µM (inactive) | GI50 (RPMI-8226): > 100 µM (inactive) | GI50 (T47D): > 100 µM (inactive) | GI50 (NCI-H23): > 100 µM (inactive) | GI50 (IGROV-1): > 100 µM (inactive) | GI50 (BT-549): > 100 µM (inactive) | GI50 (PC-3): > 100 µM (inactive) | GI50 (OVCAR-4): > 100 µM (inactive) | GI50 (DU-145): > 100 µM (inactive) | GI50 (OVCAR-5): > 100 µM (inactive) | GI50 (CAKI-1): > 100 µM (inactive) | GI50 (HCT-116): > 100 µM (inactive)

COc1ccc(/N=C2\S/C(=N\C(=N\c3ccccc3)SCc3ccccc3)N(c3ccccc3)\C2=N/c2ccc(OC)cc2)cc1
GI50 (NCI-H226): > 100 µM (inactive) | GI50 (UACC-257): > 100 µM (inactive) | GI50 (OVCAR-8): > 100 µM (inactive) | GI50 (HL-60): > 100 µM (inactive) | GI50 (KM12): > 100 µM (inactive) | GI50 (HOP-62): > 100 µM (inactive) | GI50 (K562): > 100 µM (inactive) | GI50 (MCF7): > 100 µM (inactive) | GI50 (MDA-N): > 100 µM (inactive) | GI50 (MOLT-4): > 100 µM (inactive) | GI50 (A549): > 100 µM (inactive) | GI50 (HCT-15): > 100 µM | GI50 (RXF 393): > 100 µM (inactive) | GI50 (786-0): > 100 µM (inactive) | GI50 (CCRF-CEM): > 100 µM (inactive) | GI50 (SR): > 100 µM (inactive) | GI50 (HOP-92): > 100 µM (inactive) | GI50 (EKVX): > 100 µM (inactive) | GI50 (Malme-3M): > 100 µM (inactive) | GI50 (Hs-578T): > 100 µM (inactive) | GI50 (UACC-62): > 100 µM (inactive) | GI50 (SN12C): > 100 µM (inactive) | GI50 (HT-29): > 100 µM (inactive) | GI50 (SK-MEL-2): > 100 µM (inactive) | GI50 (SNB-75): > 100 µM (inactive) | GI50 (SK-MEL-28): 62.4 µM (inactive) | GI50 (TK-10): > 100 µM (inactive) | GI50 (SK-MEL-5): > 100 µM (inactive) | GI50 (SNB-19): > 100 µM (inactive) | GI50 (SW-620): > 100 µM (inactive) | GI50 (MDA-MB-231): > 100 µM (inactive) | GI50 (COLO 205): > 100 µM (inactive) | GI50 (HCC 2998): > 100 µM (inactive) | GI50 (M14): 72.1 µM (inactive) | GI50 (UO-31): > 100 µM (inactive) | GI50 (RPMI-8226): > 100 µM (inactive) | GI50 (T47D): > 100 µM (inactive) | GI50 (NCI-H23): > 100 µM (inactive) | GI50 (IGROV-1): > 100 µM (inactive) | GI50 (BT-549): > 100 µM (inactive) | GI50 (PC-3): > 100 µM (inactive) | GI50 (HCT-116): > 100 µM (inactive)
